This test deals with T1, His6-CdbS (Myxococcus xanthus, UniProt Q1D4C1).
T1 construct: gene MXAN_4328; full-length stand-alone PilZ protein (PilZ domain residues 7-82), N-terminal His6 tag (pET28a, pMS007), made in E. coli Arctic Express (DE3) RP
The test can be described thus: bio-layer interferometry, streptavidin sensor, equilibrium one-site fit. It counts as binding. Conditions: labelled compound (biotinylated c-di-GMP immobilised on sensor); 50 mM Tris-HCl pH 7, 150 mM NaCl, 10% glycerol, 0.02% Tween-20. For orientation: BLI is a label-free optical method that tracks binding on a fibre tip over time.

Molecules are shown by their SMILES.

The text below walks through data of article PMC10313047, “During heat stress in Myxococcus xanthus, the CdbS PilZ domain protein, in concert with two PilZ-DnaK chaperones, perturbs chromosome organization and accelerates cell death” (PLOS Genetics, 2023).

T1 sequence (Q1D4C1 entry or part of it): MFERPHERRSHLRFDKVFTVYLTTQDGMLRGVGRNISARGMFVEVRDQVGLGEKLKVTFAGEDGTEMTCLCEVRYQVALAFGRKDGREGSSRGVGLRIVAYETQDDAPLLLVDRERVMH

Turning to `Nc1nc2c(ncn2[C@@H]2O[C@@H]3COP(=O)(O)O[C@H]4[C@@H](O)[C@H](n5cnc6c(=O)[nH]c(N)nc65)O[C@@H]4COP(=O)(O)O[C@H]3[C@H]2O)c(=O)[nH]1` [c-di-GMP], the Kd entry is given as “His6-CdbS^R9A did not detectably bind c-di-GMP”.
